Test results from patent publication US20230241088A1, “COMPOSITION FOR PREVENTING OR TREATING LUNG CANCER COMPRISING ORTHO-TOPOLIN RIBOSIDE AS ACTIVE INGREDIENT” (CHUNG-ANG UNIVERSITY INDUSTRY-ACADEMY COOPERATION FOUNDATION, priority 2022, published 2023).

Key:
Assay type in all cases: cell-based, Human
A549 = assay: MTT cell viability assay, A549
Method: (§1) Human NSCLC cell lines A549, H1437, H2087, H522, and HCC827 were obtained from the Korean Cell Line Bank (KCLB, Seoul, Korea). These cells were cultured in RPMI-1640 medium (Gibco, N.Y., USA) supplemented with 10% FBS (Gibco) and 1% penicillin-streptomycin (HyClone Laboratories, Logan, Utah, USA). All cell lines were cultured under standard conditions (5% CO2, humid environment, 37° C.). A549 cells were seeded at a density of 1×10^4 cells/well and H1437, H2087, H522, HCC827, and MRCS cells at a density of 2×10^4 cells/well in 96-well plates and were cultured until cells reach approximately 70-80% confluency. The NSCLC cells were treated with plant hormones for 48 hours. Stock solution of each plant hormone was diluted with culture medium, wherein concentrations of DMSO, water, methanol, and ethanol in the culture medium were below 1% (v/v). The half-maximal inhibitory concentration (IC50) was calculated using CompuSyn software (ComboSyn Inc., Paramus, N.J., USA).
(§2) The inhibitory effect of plant hormones and their derivatives was investigated on 5 NSCLC cell lines (A549, H1437, H2087, H522, and HCC827). The NSCLC cells were treated with ABA, Cor, ethephon, GR-24, IAA, KR, MJ, N6b, N6i, oTR, and SS-HCS at concentrations of 0.1, 0.5, 1, 5, 10, 50, and 100 μM. Cell viability and IC50 values for 48 hours were investigated by performing the MTT assay.

H522 = assay: MTT cell viability assay, H522
Method: as §1, §2

HCC827 = assay: MTT cell viability assay, HCC827
Method: as §1, §2

H2087 = assay: MTT cell viability assay, H2087
Method: as §1, §2

H1437 = assay: MTT cell viability assay, H1437
Method: as §1, §2

NSCLC cells = assay: MTT cell viability assay, NSCLC cells overall; settings: Homo sapiens; 48 hours, MTT assay, 5 NSCLC cell lines
Method: as §1, §2

[1] = Homo sapiens, NCI-H522, 48 hours
[2] = Homo sapiens, NCI-H2087, 48 hours
[3] = Homo sapiens, NCI-H1437, 48 hours

| IC50 (A549; 48 hours) | IC50 (H522; 48 hours) | IC50 (HCC827; 48 hours) | IC50 (H2087; 48 hours) | IC50 (H1437; 48 hours) | SMILES | IC50 (A549; Homo sapiens, A549, 48 hours) | IC50 (H522; [1]) | IC50 (HCC827; Homo sapiens, HCC827, 48 hours) | IC50 (H2087; [2]) | IC50 (H1437; [3]) | IC50 (NSCLC cells) |
| --- | --- | --- | --- | --- | --- | --- | --- | --- | --- | --- | --- |
|  |  |  |  |  | CC1=CC(=O)CC(C)(C)[C@@]1(O)/C=C/C(C)=C\C(=O)O [ABA, abscisic acid] | > 100 µM | > 100 µM | > 100 µM | > 100 µM | > 100 µM |  |
|  |  |  |  |  | O=P(O)(O)CCCl [Ethephon, ethephon] | > 100 µM | > 100 µM | > 100 µM | > 100 µM | > 100 µM |  |
| > 100 µM | > 100 µM | > 100 µM | > 100 µM | > 100 µM | CC1=C[C@H](O/C=C2/C(=O)O[C@@H]3c4ccccc4C[C@H]23)OC1=O [GR-24, Gerald Rosebery-24] |  |  |  |  |  |  |
|  |  |  |  |  | OC[C@H]1O[C@@H](n2cnc3c(NCc4ccco4)ncnc32)[C@H](O)[C@@H]1O [KR, Kinetin riboside] | 12.3 ± 1.42 µM | 73 ± 10.9 µM | 33.13 ± 0.14 µM | 98.5 ± 6.72 µM | 76.8 ± 13.7 µM | < 100 µM |
|  |  |  |  |  | CC/C=C\CC1C(=O)CCC1CC(=O)OC (stereo not shown) [MJ, methyl jasmonate] | > 100 µM | > 100 µM | > 100 µM | > 100 µM | > 100 µM |  |
|  |  |  |  |  | OC[C@H]1O[C@@H](n2cnc3c(NCc4ccccc4)ncnc32)[C@H](O)[C@@H]1O [N^6b, N^6-benzyladenosine, reference compound] |  |  |  |  |  | < 100 µM |
| 87.5 ± 15.5 µM | > 100 µM | 72.3 ± 13.6 µM | 85.4 ± 8.81 µM | 34.7 ± 2.04 µM | CC[C@@H](C(C)C)[C@@H](O)[C@H](O)[C@@H](C)[C@H]1CC[C@H]2[C@@H]3CC(=O)[C@H]4C[C@H](O)[C@H](O)C[C@]4(C)[C@H]3CC[C@]12C [SS-HCS, SS-homocastasterone] |  |  |  |  |  |  |

| SMILES | IC50 (A549; 48 hours) | IC50 (H522; 48 hours) | IC50 (HCC827; 48 hours) | IC50 (H2087; 48 hours) | IC50 (H1437; 48 hours) | IC50 (A549; Homo sapiens, A549, 48 hours) | IC50 (H522; [1]) | IC50 (HCC827; Homo sapiens, HCC827, 48 hours) | IC50 (H2087; [2]) | IC50 (H1437; [3]) | IC50 (NSCLC cells) |
| --- | --- | --- | --- | --- | --- | --- | --- | --- | --- | --- | --- |
| CC[C@H]1C=C(C(=O)N[C@@]2(C(=O)O)C[C@@H]2CC)[C@H]2CCC(=O)[C@H]2C1 [Cor, coronatine] | > 100 µM | > 100 µM | > 100 µM | > 100 µM | > 100 µM |  |  |  |  |  |  |
